Read-outs that look alike come from different tables or passages of the source.

One test concerns MCF-7. As to the kind of experiment: MTT antiproliferative assay, MCF-7. The conditions noted are these: Homo sapiens; for inhibition at 10 µM: MCF7, 10 µM; for inhibition at 10 µM / inhibition at 30 µM: 72 h; for inhibition at 30 µM: MCF7, 30 µM; for IC50: MCF7, 72 h, read-out: calculated IC50 MCF-7. The format is cell-based, human.
Test [1] concerns MDA-MB-231. As to the kind of experiment: MTT antiproliferative assay, MDA-MB-231. The conditions noted are these: Homo sapiens; for inhibition at 10 µM: MDA-MB-231, 10 µM; for inhibition at 10 µM / inhibition at 30 µM: 72 h; for inhibition at 30 µM: MDA-MB-231, 30 µM; for IC50: MDA-MB-231, 72 h, read-out: calculated IC50 MDA-MB-231. Type of test: cell-based, human.
For the next test, the system named is HeLa. Nature of the test: MTT antiproliferative assay, HeLa. Type of test: cell-based, human. The following applies: Homo sapiens, HeLa, 72 h; for IC50: read-out: calculated IC50 HeLa.
The test system of the next test is SiHa. As to the kind of experiment: MTT antiproliferative assay, SiHa. Type of test: cell-based, human. The following applies: Homo sapiens, SiHa, 72 h; for IC50: read-out: calculated IC50 SiHa.
The test system of the next test is C33A. Nature of the test: MTT antiproliferative assay, C33A. Type of test: cell-based, human. The conditions noted are these: Homo sapiens, C-33-A, 72 h; for IC50: read-out: calculated IC50 C33A.
In test [2] the test system is NIH/3T3 mouse fibroblast cell line. Nature of the test: MTT assay, tumour selectivity on non-cancerous fibroblasts. The conditions noted are these: Mus musculus; for inhibition at 10 µM: NIH3T3, 10 µM; for inhibition at 10 µM / inhibition at 30 µM: 72 h; for inhibition at 30 µM: NIH3T3, 30 µM; for IC50: NIH3T3, 72 h, read-out: calculated IC50 NIH/3T3. Type of test: cell-based.

Test [3] deals with HeLa cells. Nature of the test: Cell cycle analysis by flow cytometry (propidium iodide). The following applies: 24 and 48 h. The format is cell-based, human. How it is done: To determine the cellular DNA content of the cells, flow cytometry analysis after propidium-iodide labeling was performed. Propidium iodide is a nuclear dye intercalating between the base pairs in DNA without sequence preference. Therefore, the cells' total emitted fluorescence will depend on each cell's DNA content, which varies depending on the cell cycle phase.
Hela cells were seeded into 12-well plates at 200,000 cells/well density for the cell cycle analysis. Cells were incubated overnight prior to the treatment, then treated with 1, 2, and 3 µM solutions of 14c compound for 24 h and 48 hours. After incubation, cells were washed twice with phosphate-buffered saline (PBS) and harvested. After centrifugation at 1200 rpm, for 7 minutes, cells were washed again with 300 µl PBS and fixed in 500 µl cold 70% ethanol. Samples were stained in 300 µl dye solution containing RNaseA, TritonX-100, sodium citrate, and 0.1 mg/ml-PI in distilled water. The suspension was incubated for 20 minutes in the dark at room temperature. Cells were measured by CytoFLEX flow cytometer, recorded by CytExpert Software (Beckman Coulter INC, Brea, CA, USA). In each analysis, 20,000 events were recorded inside the FSC/SSC gate, and the percentages of the cells in the different phases of the cell cycle were determined and analyzed using ModFit LT 6.0 software.
Background: In flow cytometry, cells or beads pass a laser one at a time.

Test [4] concerns HeLa cells. As to the kind of experiment: Mitochondrial membrane potential assay (JC-10, flow cytometry). The format is cell-based, human. The conditions noted are these: 24 h. The text has this:
JC-10 dye was used to investigate the changes in the mitochondrial membrane potential. JC-10 is a cationic dye that can pass through the cell membrane and accumulate in healthy mitochondria by forming reversible red-fluorescent aggregates. In addition, changes in membrane potential result in the failure to retain the aggregates. Therefore, the dye returns to the cytosol in green monomeric form. Mitochondrial changes may be detected by measuring the green and red fluorescent signals together.
Hela cells were seeded into 12-well plates at 200,000 cells/well density and incubated overnight. Cells were treated with 1 and 2 µM of 17c for 24 h and 10 µM of CCCP as reference compound ^S1. After the incubation, cells were collected and centrifuged at 1100 rpm for 6 minutes, then washed with PBS. After centrifugation, 300 µl dye solution (20 µM JC-10 final concentration) was added to the pellet. After 5 min incubation, cells were measured by CytoFLEX flow cytometer, recorded by CytExpert Software (Beckman Coulter INC, Brea, CA, USA) reading of red and green fluorescence on 525 and 585 channels.

In test [5] the test system is human adherent cancer cell lines (HeLa, SiHa, C33A, MCF-7 and MDA-MB-231). Nature of the test: MTT assay, whole panel of cell lines. Type of test: cell-based. How it is done: We evaluated the cytotoxic activity of the newly synthesised arylated compounds 13–17 by the MTT assay[37] on a panel of human adherent cancer cell lines. The panel included breast (MCF-7 and MDA MB-231) and cervical (HeLa, SiHa and C33A) cancer cell lines differing in receptorial or HPV status. Tumour selectivity was determined on the NIH/3T3 mouse fibroblast cell line.
Briefly, the panels of breast and cervical cancerous cell lines, differing by their receptorial and HPV status were used, precisely MCF-7 (ER, PR and HER2 positive) and MDA-MB-231 (TNBC) breast carcinoma and HeLa (HPV18+), SiHa (HPV16+), C33A (HPV-) cervical carcinoma cells. Non-cancerous NIH/3T3 mouse fibroblast cell line was used for selectivity study. MCF-7, MDA-MB-231, Hela and NIH/3T3 cell lines were purchased from ECACC (European Collection of Cell Cultures, Salisbury, UK), while SiHa and C33A from ATCC (American Tissue Culture Collection, LGC Standards GmbH, Wesel, Germany). Cells were maintained in Eagle's Minimum Essential Medium (EMEM, Capricorn Scientific GmbH, Ebsdorfergrund, Germany) supplemented with 10% heat-inactivated fetal bovine serum (FBS), 1% non-essential amino acids (NEAA), and 1% antibiotic-antimycotic mixture (penicillin–streptomycin). The cells were maintained at 37 °C in a humidified atmosphere containing 5% CO2.
For measurements cells were seeded for 96-well plates at a density of 5 000/well, except for C33A, which was seeded in 10 000cells for each well. After overnight standing cells were treated with 10 and 30 µM solutions for screening and increasing concentrations (0.1-30.0 µM) of the test compounds were used for concentration-response curves. After incubation for 72 hours under cell culturing condition 5 mg/ml MTT (3-(4,5-[…])-2,5-diphenyl-2H-tetrazolium bromide) solution was added for another 4 h. The precipitated formazan crystals were solubilized in DMSO and the absorbance was measured at 545 nm with a microplate reader (BMG Labtech, Ortenberg, Germany). Wells with untreated cells were utilized as control, and inhibition % were calculated by GraphPad Prism v 9.0 software (GraphPad Software, San Diego, CA, USA). If the growth-inhibition exceeded 70% at 30 µM concentration during the screening concentration-response curves were fitted and IC50 values were calculated by GraphPad Prism v 9.0. The experiments were performed with five parallel wells for each experimental condition and repeated at least twice.
Background: Tetrazolium assays rely on reduction of a dye to a coloured formazan, in cell work by metabolically active cells.

For test [6], the system named is MDA-MB-231. Also noted: method as in PMID 21912610, PMID 28436164. The conditions noted are these: cited from earlier work.
The next test deals with MCF-7dox. The arrangement: method as in PMID 21912610, PMID 28436164. The following applies: MCF-7 adapted to doxorubicin; cited from earlier work.

Broadly, the inhibition is the percentage by which the read-out fell short of the control. Take `CCCCOC1(c2cc(=O)c3c(Oc4ccc(C(C)(C)C)cc4)cc(O)cc3o2)C=CC(=O)C=C1` [17c, 2-(1-Butoxy-4-oxocyclohexa-2,5-dienyl)-5-(4-tert-butylphenoxy)-7-hydroxy-chromen-4-one]: the inhibition at 10 µM came out at 98.5% in the test with MCF-7; 98.3% in the test on MDA-MB-231 [1]; 98% in the test on HeLa; 89.8% in the test on SiHa; 97.9% in the test with C33A; 92.7% in [2]. Further, the inhibition at 30 µM in the test with MCF-7 came out at 98.9%; with MDA-MB-231 [1] it was 97%; with HeLa, 98%; with SiHa, 96.2%; with C33A it was 97.9%; in test [2], 99%. Also, the IC50 with MCF-7 is 600 nM; in the test with MDA-MB-231 [1], 420 nM; with HeLa, 470 nM; in the test on SiHa it was 640 nM; with C33A, 390 nM; in test [2], 930 nM. In [5] (Homo sapiens, MTT, 72 h, range across cell lines, read-out: IC50 range over the investigated cell lines), the IC50 is 390 to 640 nM. For the same molecule, the subG1 phase entry in the test on HeLa cells [3] is on record as “substantial subG1 phase elevation”. Besides, the “proportion of the cells at G2/M phase” value in the test with HeLa cells [3] (concentration-dependent) is “significantly increases”. The “number of mitochondrial membrane-disrupted cells” value with HeLa cells [4] (1 and 2 µM, vs untreated controls) is recorded as “significantly increased”. Also, the “effect on mitochondrial membrane potential compared with reference agent CCCP” value with HeLa cells [4] (CCCP 10 µM) is “more substantial than that of the applied reference agent CCCP”. The “times stronger activity than parent compound 10” value in [5] (ratio of IC50 values, all investigated cell lines) is 2.5–5 times.

For the molecule `O=C1C=CC(O)(c2cc(=O)c3c(O)cc(O)cc3o2)C=C1` [compound 9, Protoapigenone], in the test on MDA-MB-231 [6], the IC50 was 1350 nM.

Regarding `CCCCOC1(c2cc(=O)c3c(O)cc(O)cc3o2)C=CC(=O)C=C1` [compound 10, 1′-O-butyl protoapigenone, reference compound], the inhibition at 10 µM came out at 87.7% in the test on MCF-7; 91.7% in the test on MDA-MB-231 [1]; 95.7% in the test on HeLa; 92.2% with SiHa; 98% in the test with C33A; 95.5% in test [2]. For the same molecule, the inhibition at 30 µM in the test on MCF-7 worked out at 93.3%; in the test on MDA-MB-231 [1], 92.8%; in the test with HeLa it was 96.2%; in the test with SiHa it was 96.3%; with C33A, 98.5%; in test [2] it was 99.1%. Further, the IC50 in the test on MCF-7 is 3030 nM; in the test on MDA-MB-231 [1], 1060 nM; with HeLa, 1430 nM; in the test with SiHa, 1600 nM; with C33A, 970 nM; in [2], 2270 nM. For the same molecule, the IC50 in the test with MDA-MB-231 [6] is 620 nM.

For the molecule `O=C1C=CC(O)(c2cc(=O)c3cc(-c4ccccc4)ccc3o2)C=C1` [compound 11], the IC50 in the test with MCF-7dox is 1230 nM.

These data come from paper PMC12278462, “Site-selective arylations of nature-inspired flavonoids or steroidal phenols via C—H or O—H activation” (Journal of Enzyme Inhibition and Medicinal Chemistry, 2025).
